From ChEMBL document CHEMBL5120927, “LEGO-Lipophosphonoxins: A Novel Approach in Designing Membrane Targeting Antimicrobials” (J Med Chem, 2022)

Tested on: Enterococcus faecalis
Experiment: Antibacterial activity against Enterococcus faecalis ATCC 29212 = CCM 4224 assessed as inhibition of bacterial growth incubated for 24 hrs by microdilution assay
Assay type: functional
Conditions: not given

Compound | MIC
CCCCCCOP(=O)(CCN(CCCN)CCCN)OCCCCCCCCCCCCCCOP(=O)(CCN(CCCN)CCCN)OCCCCCC.Cl.Cl.Cl.Cl.Cl.Cl (stereo not drawn) | 1 µg/mL
CCCCCCOP(=O)(CCN(CCCN)CCCN)OCCc1cccc2ccccc12.Cl.Cl.Cl (stereo not drawn) | 64 µg/mL
CCCCCCCCCOP(=O)(CCN(CCCN)CCCN)OCCOCc1ccc(OC)cc1.Cl.Cl.Cl (stereo not drawn) | 16 µg/mL
CCCCCCCCOP(=O)(CCN(CCCN)CCCN)OCCOCc1ccccc1.Cl.Cl.Cl (stereo not drawn) | 128 µg/mL
CCCCCCCCCOP(=O)(CCN(CCCN)CCCN)OCCc1ccc(N)cc1.Cl.Cl.Cl.Cl (stereo not drawn) | 128 µg/mL
CCCCCCCCCOP(=O)(CCN(CCCN)CCCN)OCCc1ccccc1.Cl.Cl.Cl (stereo not drawn) | 32 µg/mL
CCCCCCCCCOP(=O)(CCN(CCCN)CCCN)OCCc1ccc([N+](=O)[O-])cc1.Cl.Cl.Cl (stereo not drawn) | 16 µg/mL

Tested on: not listed separately
Experiment: Gradient chromatographic hydrophobicity index of the compound at pH 3.7 by HPLC analysis
Assay type: ADME
Conditions: not given

Compound | CHI
CCCCCCOP(=O)(CCN(CCCN)CCCN)OCCCCCCCCCCCCCCOP(=O)(CCN(CCCN)CCCN)OCCCCCC.Cl.Cl.Cl.Cl.Cl.Cl (stereo not drawn) | 40.6

Tested on: Escherichia coli
Experiment: Antibacterial activity against Escherichia coli ATCC 25922 = CCM 3954 assessed as inhibition of bacterial growth incubated for 24 hrs by microdilution assay
Assay type: functional
Conditions: not given

Compound | MIC
CCCCCCOP(=O)(CCN(CCCN)CCCN)OCCCCCCCCCCCCCCOP(=O)(CCN(CCCN)CCCN)OCCCCCC.Cl.Cl.Cl.Cl.Cl.Cl (stereo not drawn) | 1 µg/mL
CCCCCCOP(=O)(CCN(CCCN)CCCN)OCCc1cccc2ccccc12.Cl.Cl.Cl (stereo not drawn) | > 128 µg/mL
CCCCCCCCCOP(=O)(CCN(CCCN)CCCN)OCCOCc1ccc(OC)cc1.Cl.Cl.Cl (stereo not drawn) | 32 µg/mL
CCCCCCCCOP(=O)(CCN(CCCN)CCCN)OCCOCc1ccccc1.Cl.Cl.Cl (stereo not drawn) | > 128 µg/mL
CCCCCCCCCOP(=O)(CCN(CCCN)CCCN)OCCc1ccc(N)cc1.Cl.Cl.Cl.Cl (stereo not drawn) | 128 µg/mL
CCCCCCCCCOP(=O)(CCN(CCCN)CCCN)OCCc1ccccc1.Cl.Cl.Cl (stereo not drawn) | 32 µg/mL
CCCCCCCCCOP(=O)(CCN(CCCN)CCCN)OCCc1ccc([N+](=O)[O-])cc1.Cl.Cl.Cl (stereo not drawn) | 16 µg/mL

Tested on: Staphylococcus aureus
Experiment: Antibacterial activity against Staphylococcus aureus ATCC 29213 = CCM 4223 assessed as inhibition of bacterial growth incubated for 24 hrs by microdilution assay
Assay type: functional
Conditions: not given

Compound | MIC
CCCCCCOP(=O)(CCN(CCCN)CCCN)OCCc1cccc2ccccc12.Cl.Cl.Cl (stereo not drawn) | 64 µg/mL
CCCCCCCCCOP(=O)(CCN(CCCN)CCCN)OCCOCc1ccc(OC)cc1.Cl.Cl.Cl (stereo not drawn) | 16 µg/mL
CCCCCCCCOP(=O)(CCN(CCCN)CCCN)OCCOCc1ccccc1.Cl.Cl.Cl (stereo not drawn) | 128 µg/mL
CCCCCCCCCOP(=O)(CCN(CCCN)CCCN)OCCc1ccc(N)cc1.Cl.Cl.Cl.Cl (stereo not drawn) | 64 µg/mL
CCCCCCCCCOP(=O)(CCN(CCCN)CCCN)OCCc1ccccc1.Cl.Cl.Cl (stereo not drawn) | 16 µg/mL
CCCCCCCCCOP(=O)(CCN(CCCN)CCCN)OCCc1ccc([N+](=O)[O-])cc1.Cl.Cl.Cl (stereo not drawn) | 8 µg/mL

Tested on: Pseudomonas aeruginosa
Experiment: Antibacterial activity against Pseudomonas aeruginosa ATCC 27853 = CCM 3955 assessed as inhibition of bacterial growth incubated for 24 hrs by microdilution assay
Assay type: functional
Conditions: not given

Compound | MIC
CCCCCCOP(=O)(CCN(CCCN)CCCN)OCCCCCCCCCCCCCCOP(=O)(CCN(CCCN)CCCN)OCCCCCC.Cl.Cl.Cl.Cl.Cl.Cl (stereo not drawn) | 2 µg/mL
CCCCCCOP(=O)(CCN(CCCN)CCCN)OCCc1cccc2ccccc12.Cl.Cl.Cl (stereo not drawn) | 64 µg/mL
CCCCCCCCCOP(=O)(CCN(CCCN)CCCN)OCCOCc1ccc(OC)cc1.Cl.Cl.Cl (stereo not drawn) | 16 µg/mL
CCCCCCCCOP(=O)(CCN(CCCN)CCCN)OCCOCc1ccccc1.Cl.Cl.Cl (stereo not drawn) | > 128 µg/mL
CCCCCCCCCOP(=O)(CCN(CCCN)CCCN)OCCc1ccc(N)cc1.Cl.Cl.Cl.Cl (stereo not drawn) | 128 µg/mL
CCCCCCCCCOP(=O)(CCN(CCCN)CCCN)OCCc1ccccc1.Cl.Cl.Cl (stereo not drawn) | 16 µg/mL
CCCCCCCCCOP(=O)(CCN(CCCN)CCCN)OCCc1ccc([N+](=O)[O-])cc1.Cl.Cl.Cl (stereo not drawn) | 8 µg/mL

Tested on: Escherichia coli
Experiment: Antibacterial activity against Escherichia coli ATCC 25922 = CCM 3954 assessed as inhibition of bacterial growth incubated for 24 hrs in presence of BSA by microdilution assay
Assay type: functional
Conditions: not given

Compound | MIC
CCCCCCOP(=O)(CCN(CCCN)CCCN)OCCc1cccc2ccccc12.Cl.Cl.Cl (stereo not drawn) | > 131 µg/mL
CCCCCCCCCOP(=O)(CCN(CCCN)CCCN)OCCOCc1ccc(OC)cc1.Cl.Cl.Cl (stereo not drawn) | > 133 µg/mL
CCCCCCCCOP(=O)(CCN(CCCN)CCCN)OCCOCc1ccccc1.Cl.Cl.Cl (stereo not drawn) | > 132 µg/mL
CCCCCCCCCOP(=O)(CCN(CCCN)CCCN)OCCc1ccc(N)cc1.Cl.Cl.Cl.Cl (stereo not drawn) | > 128 µg/mL
CCCCCCCCCOP(=O)(CCN(CCCN)CCCN)OCCc1ccc([N+](=O)[O-])cc1.Cl.Cl.Cl (stereo not drawn) | 128 µg/mL

Tested on: Staphylococcus epidermidis
Experiment: Antibacterial activity against Staphylococcus epidermidis CCM 7221 assessed as inhibition of bacterial growth incubated for 24 hrs by microdilution assay
Assay type: functional
Conditions: not given

Compound | MIC
CCCCCCOP(=O)(CCN(CCCN)CCCN)OCCCCCCCCCCCCCCOP(=O)(CCN(CCCN)CCCN)OCCCCCC.Cl.Cl.Cl.Cl.Cl.Cl (stereo not drawn) | 0.5 µg/mL

Tested on: Staphylococcus aureus
Experiment: Antibacterial activity against methicillin resistant Staphylococcus aureus 4591/A assessed as reduction in microbial growth incubated for 24 hrs by microdilution assay
Assay type: functional
Conditions: not given

Compound | MIC
CCCCCCOP(=O)(CCN(CCCN)CCCN)OCCCCCCCCCCCCCCOP(=O)(CCN(CCCN)CCCN)OCCCCCC.Cl.Cl.Cl.Cl.Cl.Cl (stereo not drawn) | 1 µg/mL

Tested on: Enterococcus faecium
Experiment: Antibacterial activity against vancomycin resistant Enterococcus faecium 419/ANA assessed as reduction in microbial growth incubated for 24 hrs by microdilution assay
Assay type: functional
Conditions: not given

Compound | MIC
CCCCCCOP(=O)(CCN(CCCN)CCCN)OCCCCCCCCCCCCCCOP(=O)(CCN(CCCN)CCCN)OCCCCCC.Cl.Cl.Cl.Cl.Cl.Cl (stereo not drawn) | 2 µg/mL

Tested on: Staphylococcus aureus
Experiment: Antibacterial activity against Staphylococcus aureus ATCC 29213 = CCM 4223 assessed as inhibition of bacterial growth incubated for 24 hrs in presence of BSA by microdilution assay
Assay type: functional
Conditions: not given

Compound | MIC
CCCCCCOP(=O)(CCN(CCCN)CCCN)OCCc1cccc2ccccc12.Cl.Cl.Cl (stereo not drawn) | > 128 µg/mL
CCCCCCCCCOP(=O)(CCN(CCCN)CCCN)OCCOCc1ccc(OC)cc1.Cl.Cl.Cl (stereo not drawn) | 128 µg/mL
CCCCCCCCOP(=O)(CCN(CCCN)CCCN)OCCOCc1ccccc1.Cl.Cl.Cl (stereo not drawn) | > 128 µg/mL
CCCCCCCCCOP(=O)(CCN(CCCN)CCCN)OCCc1ccc(N)cc1.Cl.Cl.Cl.Cl (stereo not drawn) | > 128 µg/mL
CCCCCCCCCOP(=O)(CCN(CCCN)CCCN)OCCc1ccc([N+](=O)[O-])cc1.Cl.Cl.Cl (stereo not drawn) | 64 µg/mL

Tested on: not listed separately
Experiment: Hemolytic activity in human RBC assessed as haemoglobin release measured after 3 hr
Assay type: toxicity, cell-based, Erythrocyte
Conditions: red blood cells (erythrocytes)

Compound | HC50 at 3 h
CCCCCCOP(=O)(CCN(CCCN)CCCN)OCCc1cccc2ccccc12.Cl.Cl.Cl (stereo not drawn) | > 100 µg/mL
CCCCCCCCCOP(=O)(CCN(CCCN)CCCN)OCCOCc1ccc(OC)cc1.Cl.Cl.Cl (stereo not drawn) | 55 µg/mL
CCCCCCCCOP(=O)(CCN(CCCN)CCCN)OCCOCc1ccccc1.Cl.Cl.Cl (stereo not drawn) | > 100 µg/mL
CCCCCCCCCOP(=O)(CCN(CCCN)CCCN)OCCc1ccc(N)cc1.Cl.Cl.Cl.Cl (stereo not drawn) | > 100 µg/mL
CCCCCCCCCOP(=O)(CCN(CCCN)CCCN)OCCc1ccccc1.Cl.Cl.Cl (stereo not drawn) | 58.7 µg/mL
CCCCCCCCCOP(=O)(CCN(CCCN)CCCN)OCCc1ccc([N+](=O)[O-])cc1.Cl.Cl.Cl (stereo not drawn) | 50 µg/mL

Tested on: Escherichia coli
Experiment: Antibacterial activity against multidrug-resistant Escherichia coli CE5556 expressing CTX-M-15 assessed as reduction in microbial growth incubated for 24 hrs by microdilution assay
Assay type: functional
Conditions: not given

Compound | MIC
CCCCCCOP(=O)(CCN(CCCN)CCCN)OCCCCCCCCCCCCCCOP(=O)(CCN(CCCN)CCCN)OCCCCCC.Cl.Cl.Cl.Cl.Cl.Cl (stereo not drawn) | 1 µg/mL
